SMILES strings stand for the structures.

The source of these data is patent publication US20240027435A1, “METHOD AND KIT FOR LABELING EUKARYOTIC CELLS FROM A MULTICELLULAR ORGANISM USING MODIFIED MONOSACCHARIDE COMPOUNDS AND PHARMACEUTICAL COMPOSITION COMPRISING SUCH CELLS” (THERAONCO, priority 2020, published 2024).

Format in all cases: cell-based, Human
Assay [1] deals with THP1. Description: Labelling of cells with azido-monosaccharide probe, fluorescence cancer/non cancer ratio: THP1 vs Monocytes/Macrophages. The conditions noted are these: fluorescence signal ratio; THP1 (Blood, monocytic acute leukemia) vs Monocytes/Macrophages; incubation one doubling time (26 h). On the procedure:
(§1) The cell lines were grown in suitable medium, supplemented by 10% fetal bovine serum (FBS) (VWR international S.A.S). The culture medium was changed every two days. The passaging of cells was performed using Tryp-LE express 1× (Gibco). The cell viability was estimated using trypan blue exclusion tests.
(§2) Cells were seeded in 24-well plates, at a density of 5×10^4 cells/well. Then, cells were incubated at 37° C., 5% CO2, during 24 hours. The culture media were adapted to the tested cells and supplemented by 10% fetal bovine serum (FBS). The incubation time corresponded to one doubling time of the tested cells. The fluorescence signal cancer/non cancer ratios were calculated based on fluorescence intensities obtained with Xylose-N3 or Ribose-N3 tested on cancer and corresponding non cancer cells.
(§3) The fluorescence assimilation of Xylose-N3 or Ribose-N3 probes was visualized by copper-free click chemistry using sulfo-DBCO-biotin (1 mM), followed by labeling with a mouse anti-biotin Alexa Fluor 488 antibody conjugate (0.62 mg/ml stock, Jackson ImmunoResearch, dilution 1/10). […]
(§4) The fluorescence acquisition was recorded using Olympus Microscopy IX83 (Olympus Life Science) equipped with a 60×/1.3 […]/1.4 SRI (silicone refractive index) objective, and Hamamatsu oreca flash 4 LT camera with 109 nm/pixel calibrated pixel size. […]

Assay [2] deals with KCL22. Nature of the assay: Labelling of cells, fluorescence cancer/non cancer ratio: KCL22 vs Lymphocytes. The conditions noted are these: fluorescence signal ratio; KCL22 (Blood, chronic myelogenous leukemia) vs Lymphocytes; one doubling time (24 h). On the procedure: as §1, §2, §3, §4
Assay [3] relates to A431. Nature of the assay: Labelling of cells, fluorescence cancer/non cancer ratio: A431 vs Hacat. The conditions noted are these: fluorescence signal ratio; A431 (Skin, Epidermoid carcinoma) vs Hacat; one doubling time (30 h). On the procedure:
as §1, §2, §3, §4

The test system of assay [4] is PANC. Nature of the assay: Labelling of cells, fluorescence cancer/non cancer ratio: PANC vs HPNE. The conditions noted are these: fluorescence signal ratio; PANC (Pancreas, Pancreatic carcinoma) vs HPNE; one doubling time (32 h). How it is done:
as §1, §2, §3, §4

In assay [5] the test system is Kasumi-1. Nature of the assay: Labelling of cells, fluorescence cancer/non cancer ratio: Kasumi-1 vs B12-F8. The conditions noted are these: fluorescence signal ratio; Kasumi-1 (Blood, Acute Myeloid Leukemia, 48 h) vs B12-F8 (24 h); one doubling time. How it is done:
as §1, §2, §3, §4

Assay [6] concerns K562. Nature of the assay: Labelling of cells, fluorescence cancer/non cancer ratio: K562 vs Lymphocytes T. The conditions noted are these: fluorescence signal ratio; K562 (Blood, Chronic Myeloid Leukemia) vs Lymphocytes T; one doubling time (24 h). How it is done:
as §1, §2, §3, §4

The test system of assay [7] is HT29. Description: Labelling of cells, fluorescence cancer/non cancer ratio: HT29 vs Colon epithelial cell. The conditions noted are these: fluorescence signal ratio; HT29 (colon, Colorectal adenocarcinoma) vs Colon epithelial cell; one doubling time (40 h). How it is done: as §1, §2, §3, §4
In assay [8] the test system is AGS. Nature of the assay: Labelling of cells, fluorescence cancer/non cancer ratio: AGS vs Stomach epitelial cell. The conditions noted are these: fluorescence signal ratio; AGS (Stomach, Gastric adenocarcinoma) vs Stomach epitelial cell; one doubling time (30 h). How it is done: as §1, §2, §3, §4
The test system of assay [9] is MDA-MB-231. Nature of the assay: Labelling of cells, fluorescence cancer/non cancer ratio: MDA-MB-231 vs Breast epithelial cell. The conditions noted are these: fluorescence signal ratio; MDA-MB-231 (Breast adenocarcinoma) vs Breast epithelial cell; one doubling time (40 h). How it is done:
as §1, §2, §3, §4

Assay [10] concerns A549. Nature of the assay: Labelling of cells, fluorescence cancer/non cancer ratio: A549 vs Bronchial epithelial cell. The conditions noted are these: fluorescence signal ratio; A549 (Lung, Carcinoma) vs Bronchial epithelial cell; one doubling time (40 h). On the procedure:
as §1, §2, §3, §4

In assay [11] the test system is BL-2. Nature of the assay: Labelling of cells, fluorescence cancer/non cancer ratio: BL-2 vs Isolated primary B cells. The conditions noted are these: fluorescence signal ratio; BL-2 (Blood, non-endemic Burkitt lymphoma, 24 h) vs Isolated primary B cells. On the procedure: as §1, §2, §3, §4
Assay [12] has as its system DOHH-2. Description: Labelling of cells, fluorescence cancer/non cancer ratio: DOHH-2 vs Isolated primary B cells. The conditions noted are these: fluorescence signal ratio; DOHH-2 (Blood, Diffuse large B-cell lymphoma germinal center B-cell type, 40-48 h) vs Isolated primary B cells. How it is done:
as §1, §2, §3, §4

Assay [13] concerns OCI-Ly3. Nature of the assay: Labelling of cells, fluorescence cancer/non cancer ratio: OCI-Ly3 vs Isolated primary B cells. The conditions noted are these: fluorescence signal ratio; OCI-Ly3 (Blood, Diffuse large B-cell lymphoma, 24 h) vs Isolated primary B cells. On the procedure: as §1, §2, §3, §4
In assay [14] the test system is MDA MB175. Nature of the assay: Labelling of cells, fluorescence cancer/non cancer ratio: MDA MB175 vs HME-1. The conditions noted are these: fluorescence signal ratio; MDA MB175 (Breast cancer) vs HME-1; one doubling time (30 h). On the procedure:
as §1, §2, §3, §4

For the compound `[N-]=[N+]=NC[C@@H](O)[C@H](O)[C@@H](O)C=O` [Xylose-N3, 5-azido-5-deoxy-xylose], the “Cancer/Non Cancer Ratio” value in assay [1] is given as 25; in assay [2] it was 7; in assay [3], 12; in assay [4], 3; in assay [5] it was 2; in assay [6] it was 5. The “Cancer/Non Cancer Ratio” value in [7] worked out at 8; in assay [8], 2; in assay [9], 4; in assay [10], 10; in assay [11] it was 2; in assay [12] it was 12. Further, the “Cancer/Non Cancer Ratio” value in [13] was found to be 9; in assay [14] it was 3.
